“Also recorded” adds a separate entry of the source.
Columns and labels:
[1] = system: Arabidopsis thaliana seed germination; assay: Arabidopsis seed germination assay (promotion of germination in the presence of (S)-ABA); format: in vivo; design: key to Rating: Arabidopsis seed germination promotion activity: −: Seeds germinated at approximately the same time as those treated with 0.3 ppm of (S)-ABA alone (i.e., treatment with the 2′-vinyl-(S)-ABA derivative showed no measurable effect in this assay configuration).; +: Seeds germinated 1 to 4 days earlier than those treated with 0.3 ppm of (S)-ABA alone.; ++: Seeds germinated 5 to 7 days earlier than those treated with 0.3 ppm of (S)-ABA alone.; +++: Seeds germinated 8 to 10 days earlier than those treated with 0.3 ppm of (S)-ABA alone; conditions: for Rating: Arabidopsis seed germination promotion activity: 30 ppm compound in the presence of 0.3 ppm (S)-ABA, scored on day 14
Experimental: To determine whether the (S)-ABA derivatives of the present invention were effective antagonists, germination assays were performed with the model plant Arabidopsis thaliana. If the compounds are found to be antagonists, they may be useful to counter any undesirable side effects of (S)-ABA.
Arabidopsis seed was sterilized by shaking for five minutes in 200 proof ethanol, followed by shaking for five minutes in a 10% bleach solution. The seeds were then washed five times in sterile, distilled, de-ionized water and suspended in 0.1% phytoagar. The tubes containing the seeds were wrapped in aluminum foil and stratified at 4° C. for two days.
All compounds were tested at a concentration of 30 ppm in the presence or absence of 0.3 ppm (S)-ABA, in 24-well plates. For each compound, a 1000 ppm stock solution was prepared in distilled, deionized water containing 5% DMSO. The stock test solution (15 μL) was added to each well, plus or minus 1.5 μL of 100 ppm (S)-ABA in 5% DMSO. Appropriate amounts of distilled, de-ionized water was added to equalize volumes, and 450 μL of ½×Murashige and Skoog media containing 1.2% Bactoagar was then added to each well (final DMSO concentration was 0.5%). When the media solidified, ten to 15 sterile stratified Arabidopsis seeds were distributed into each well using a repeat pipettor. The plates were sealed with surgical tape and placed in a growth chamber running diurnal cycles of 12 hours of light at 24° C. and 12 hours of darkness at 19° C. The plates were scanned on days 3 through 14, and scored on day 14. The (S)-2′-vinyl-substituted ABA derivatives were scored on ability to promote germination in the presence of (S)-ABA. The results are summarized below in “Table 1: Arabidopsis seed germination promotion activity of 2′-vinyl-(S)-ABA derivatives.”

[2] = system: grapevines, Seedless 'Red Flame' (bud break and shoot development); assay: Field study for breaking grape vine dormancy; format: in vivo; conditions: for Percent of Buds Broken / Shoot Length/Spur (total length of all shoots present on spur): 1% solution applied to dormant grape spurs
Experimental: A small plot field study to test the effect of experimental compounds on release of, or breaking grape vine dormancy was conducted near Thermal, Calif. in January, 2016. The grapevines, Seedless ‘Red Flame’, had been pruned to 2-4 node spurs (shortened canes) prior to treatment. Aqueous treatment solutions were prepared with a test compound, an appropriate buffering agent, and a silicone-based nonionic surfactant at 0.25% (v/v). Each spur was thoroughly wetted with a 1% (w/v) solution, which was applied with a foam brush. Dormancy breaking was assessed periodically by examining bud break (initiation of growth) and subsequent shoot development. […] Both a control treatment (aqueous solution with surfactant) and a positive control treatment (the commercial standard for bud breaking, hydrogen cyanamide) were included in this study for comparison.

Row | Compound | Rating: Arabidopsis seed germination promotion activity [1] | antagonist nature compared to (S)-ABA ([1]; seed germination assay, 30 ppm with 0.3 ppm (S)-ABA) | Percent of Buds Broken ([2]; 31 days post-treatment) [%] | Percent of Buds Broken ([2]; 48 days post-treatment) [%] | Shoot Length/Spur (total length of all shoots present on spur) ([2]; 48 days post-treatment) [cm] | Shoot Length/Spur (total length of all shoots present on spur) ([2]; 48 days post-treatment, listed as compound 23) | effect on bud break / breaking of woody plant dormancy ([2]; application to dormant grape spurs, 1% solution)
1 | CC(=C/C(=O)O)/C=C/[C@@]1(O)C(/C=C/c2ccc(F)c(F)c2)=CC(=O)CC1(C)C [Compound 23] | +++ (Seeds germinated 8 to 10 days earlier than those treated with 0.3 ppm of (S)-ABA alone.) | antagonists of (S)-ABA; also recorded: one of the most potent (S)-ABA antagonist | 16.7 | 76.7 | 22.2 | intermediate between the spurs treated with the control and hydrogen cyanamide | significantly increased bud break
2 | N#CN [Hydrogen cyanamide, hydrogen cyanamide, reference compound] |  |  | 21.0 | 58.8 | 25.2 |  | 
3 | CC(=C/C(=O)O)/C=C/[C@@]1(O)C(/C=C/c2c(F)cccc2Cl)=CC(=O)CC1(C)C [Compound 7] | ++ (Seeds germinated 5 to 7 days earlier than those treated with 0.3 ppm of (S)-ABA alone.) |  |  |  |  |  | 
4 | CC(=C/C(=O)O)/C=C/[C@@]1(O)C(/C=C/c2ccccn2)=CC(=O)CC1(C)C [Compound 36] | − |  |  |  |  |  | 
